Data reported in patent US20090062355A1, “Pharmaceutical Product” (Takeda Pharmaceutical Company Limited, priority 2006, published 2009).
Read-outs that look alike come from different tables or passages of the source.

Experiments:
[1] = system: mouse macrophage cell line RAW264.7 cells; assay: Suppressive action on production of mediator from LPS stimulated macrophage; format: cell-based; conditions: LPS 10 ng/ml, overnight culture
Method: A suppressive effect of test compound 1 (compound 72 of Reference Example B66) on the production of various mediators by lipopolysaccharide (LPS), which is a TLR4 agonist, using mouse macrophage cell line RAW264.7 cells was examined. The day before the experiment, the cells were suspended to 5×10^5 cells/mL in RPMI1640 medium supplemented with 10% inactivated fetal bovine serum, plated on a 96 well microplate at 0.2 mL/well and incubated at 37° C., 5% CO2/95% air overnight. The medium was changed to RPMI1640 medium supplemented with 1% inactivated fetal bovine serum, and test compound 1 and LPS (final concentration 10 ng/ml) was added. After overnight culture, cytokine, chemokine, prostaglandin E2 in the culture supernatant was quantified by ELISA, and nitrite ion (stable metabolite of NO) concentration was quantified by a fluorescence method using 2,3-diaminonaphthalene. Test compound 1 was dissolved in N,N-dimethylformamide to 10 mM, diluted with RPMI1640 medium supplemented with 1% inactivated fetal bovine serum to 0.1 mM, further diluted with the medium to 10-fold concentration of the final concentration and 1/10 thereof was added. Test compound 1 suppressed almost all the examined mediator production at an equivalent IC50.

[2] = system: mouse macrophage cell line RAW264.7 cells; assay: Inhibitory action on intracellular signal transduction after LPS stimulation (Bioplex phosphorylated protein assay); format: cell-based; conditions: LPS 10 ng/mL; 1, 3, 10, 20, 30 min; FIG. 1
From the text: FIG. 1-1 is a graph showing the effect of test compound 1 on phosphorylated protein (ATF2) after LPS addition in mouse macrophage cells. An average of triplicate measurement values is shown, mean±standard error (Experimental Example 5, n=3).
FIG. 1-2 is a graph showing the effect of test compound 1 on phosphorylated protein (JNK) after LPS addition in mouse macrophage cells. An average of triplicate measurement values is shown, mean±standard error (Experimental Example 5, n=3).
FIG. 1-3 is a graph showing the effect of test compound 1 on phosphorylated protein (p38MAPK) after LPS addition in mouse macrophage cells. An average of triplicate measurement values is shown, mean±standard error (Experimental Example 5, n=3).
FIG. 1-4 is a graph showing the effect of test compound 1 on phosphorylated protein (IκBα) after LPS addition in mouse macrophage cells. An average of triplicate measurement values is shown, mean±standard error (Experimental Example 5, n=3). […]
A suppressive effect of test compound 1 (compound 72 of • Reference Example B66) on the production of various cytokines by lipopolysaccharide (LPS), which is a TLR4 agonist, using mouse macrophage cell line RAW264.7 cells was examined. […] The supernatant was recovered, and phosphorylated protein was quantified using Bioplex phosphorylated protein assay (Bio-Rad). […]

SMILES: CCOC(=O)C1=CCCC[C@H]1S(=O)(=O)Nc1ccc(F)cc1Cl [test compound 1, ethyl (6R)-6-[(2-chloro-4-fluoroanilino)sulfonyl]-1-cyclohexene-1-carboxylate]
- IC50 ([1]; ELISA, read-out: IC50, IL-1α production): 1.1 nM
- IC50 ([1]; ELISA, read-out: IC50, IL-6 production): 2 nM
- IC50 ([1]; ELISA, read-out: IC50, IL-10 production): 1.6 nM
- IC50 ([1]; ELISA, read-out: IC50, MIP-2 production): 7.1 nM
- IC50 ([1]; ELISA, read-out: IC50, PGE2 production): 4 nM
- IC50 ([1]; ELISA, read-out: IC50, TNF-α production): 3.1 nM
- IC50 ([1]; fluorescence method with 2,3-diaminonaphthalene, read-out: IC50, NO production (nitrite ion)): 1.8 nM
- phosphorylated protein after LPS addition (ATF2, JNK, p38MAPK, IκBα, ERK1/2, p90RSK, STAT2, p70 S6 Kinase) [2]: suppressed phosphorylation of all examined proteins involved in LPS signal transduction
